Patent publication US20260199299A1, “BETA CARBOLINES AS TOPICAL ANTI-INFLAMMATORY AGENTS FOR APPLICATION TO MUCOUS MEMBRANES” (President and Fellows of Harvard College, priority 2022, published 2026)

Tested on: NFκB
Assay: NFκB induction in primary monocytes (FIG. 9A-9C)
Type: cell-based

SMILES: OCc1ccc(-c2nccc3c2[nH]c2ccccc23)o1 [Compound 8]
- suppression of NFκB induction in primary monocytes: suppression of NFκB induction
